Entries after “also recorded” stand apart in the source; their conditions may differ.
Experiments:
[1] = Solubility of verteporfin derivative compounds in water and buffer (pH = 2); assay type: physicochemical
SMO-M2;GFAP-cre mice = test: Kaplan-Meier survival of SMO-M2;GFAP-cre mice, intraperitoneal injection; assay type: in vivo, mouse; settings: IP injection, versus vehicle (DMSO), N=8 each group
YAP:TEAD = YAP:TEAD (Homo sapiens, UniProt P46937); settings: Liu-Chittenden et al. 2012; cited from earlier work
[2] = system: Smo-M2;GFAP-cre medulloblastoma tumor slices; test: Tumor slice culture ex vivo, tissue viability by Cell Titer Blue; assay type: cell-based, mouse
Description: Fresh tumor tissues were dissected and cut into 250 micrometer (μm) thick slices and cultured at air-media interface in serum-free medium (DMEM/F12, B27, pen/strep) for 8-12 days. Tissue viability was measured by Cell Titer Blue assay (Promega, Madison, Wis.) at 2-4 days intervals. DMSO or drugs were added after each viability reading.

[3] = system: MED311 human patient-derived xenograft (PDX) SHH medulloblastoma cells; test: VP treatment of primary cells from SHH subgroup PDX model; assay type: cell-based
Description: (§1) To test YAP function in human cells, primary cells from a SHH subgroup PDX model (MED311) were isolated and treated with VP.
(§2) Primary cells from spontaneous mouse medulloblastoma ([…];p53^−/− or FSMO;GFAPcre) and MED311 PDX model were isolated and cultured in serum-free stem cell medium (DMEM/F12, B27, pen/strep, bFGF9 10 nanograms per milliliter (ng/mL)), and EGF (20 ng/mL). Number of self-renewing stem cells in vitro were measured by plating single cells at a clonal density (<1 cell/μL) and counting spheres >100 μM 7 days later. To establish IC50 values, 3000 mouse medulloblastoma cells were plated in 96 wells and treated varying concentrations of verteporfin and new derivatives were synthesized, in triplicate, and viability was measured using Cell Titer Blue assay (Promega, Madison, Wis.) 3 days after drug treatment.

[4] = system: Ptch;p53 and Smo-M2;GFAP-cre medulloblastoma cells; test: Self-renewal (sphere formation at clonal density) of SHH medulloblastoma tumorspheres; assay type: cell-based, mouse; settings: for suppression of self-renewal: Ptch;p53 and Smo-M2;GFAP-cre cells in vitro, n=3; for self-renewal (in words): in vitro
Description: as §1, §2

Sequence of YAP:TEAD (P46937 whole entry): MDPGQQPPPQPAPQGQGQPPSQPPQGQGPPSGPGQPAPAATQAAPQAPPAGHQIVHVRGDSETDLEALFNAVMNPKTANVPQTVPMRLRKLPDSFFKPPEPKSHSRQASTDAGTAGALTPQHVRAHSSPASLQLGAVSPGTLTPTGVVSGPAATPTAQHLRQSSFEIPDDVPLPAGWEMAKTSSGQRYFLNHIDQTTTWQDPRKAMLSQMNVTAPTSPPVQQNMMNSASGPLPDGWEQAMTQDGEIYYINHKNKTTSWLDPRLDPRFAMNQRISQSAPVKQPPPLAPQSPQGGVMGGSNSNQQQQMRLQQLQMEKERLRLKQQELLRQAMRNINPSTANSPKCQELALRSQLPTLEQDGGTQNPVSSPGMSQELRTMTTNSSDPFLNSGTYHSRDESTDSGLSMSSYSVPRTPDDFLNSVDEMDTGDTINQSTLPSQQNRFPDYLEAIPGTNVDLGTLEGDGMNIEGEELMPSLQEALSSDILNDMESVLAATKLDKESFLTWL

## C=Cc1c(C)c2cc3nc(cc4[nH]c(cc5nc(cc1[nH]2)C(C)=C5CCC(=O)O)c(CCC(=O)OC)c4C)[C@@]1(C)C3=CC=C(C(=O)OC)[C@H]1C(=O)OC [Verteporfin, 3-[(23 S,24R)-14-ethenyl-5-(3-methoxy-3-oxopropyl)-22,23-bis(methoxycarbonyl)-4,10,15,24-tetramethyl-25,26,27,28-tetraazahexacyclo[16.6.1.13,6.18,11.113,16.019,24]octacosa-1,3,5,7,9,11(27),12,14,16,18(25), 19,21-dodecaen-9-yl]propanoic acid]
[1]
  solubility (in words): poor solubility
[1]; phosphate buffer pH = 2
  Buffer (pH = 2) result: insoluble
[1]; water, at the amount per volume in mg/mL
  Water result: insoluble
SMO-M2;GFAP-cre mice
  survival: increase survival
YAP:TEAD
  YAP:TEAD binding: inhibit YAP:TEAD binding
[2]
  response of tumor tissue explants grown as intact slices: significant response
[3]; 24 hours post-VP treatment, listed as VP
  cell morphology: significant morphology change; also recorded: morphological changes consistent with apoptosis
[3]; upon VP treatment
  proliferation: reduced proliferation
[4]; 0.1 μM
  suppression of self-renewal: ~50%
[4]; 100 nM
  self-renewal (in words): suppressed self-renewal
[4]; 1 μM
  self-renewal (in words): completely suppressed self-renewal
[4]
  suppression of self-renewal: 100%
